Results from PMC9137512 (Antibiotics, 2022).

What was measured:
[1] = Free dalbavancin in patient serum by solid phase extraction with a centrifugal device (Nanosep); format: in vivo, human; details: for fcmax(d1) *: day 1 peak; for fcmax(d1) * / fcmin(d8) *: free concentration determined by solid phase extraction (Nanosep); for fcmin(d8) *: day 8 trough; for fAUC(d8) *: from free concentration by solid phase extraction (Nanosep)
Experimental: The AUC was calculated using the trapezoidal rule.

[2] = Free concentration and protein binding in spiked human serum samples (Table S5)
Experimental: Subsequently, samples were mixed for 10 s, stored in an ultrasonic bath for 10 min at 40 °C, then centrifuged at 8000× g for 5 min. Next, 100 µL of the resulting supernatant was further diluted with 500 µL water with 0.1% formic acid. […] Details are described in the Supplementary Materials (Figures S1–S3).
Table S5. […] In order to evaluate the
(a) Spiked human serum samples of 14 patients (8 critically ill and 6 non-critically ill) after calibration with sheep serum.
(b) Spiked human serum samples of 9 critically ill patients and 6 healthy volunteers after calibration with human serum.

[3] = S5a, serum of patient 2 (critically ill) spiked 200 mg/L, measured c 207 mg/L, calibration with sheep serum
[4] = S5a, serum of patient 3 (critically ill) spiked 50 mg/L, measured c 51.2 mg/L, calibration with sheep serum
[5] = S5b, serum of 26 (healthy volunteer) spiked 200 mg/L, measured c 219 mg/L, calibration with human serum
[6] = S5b, serum of 27 (healthy volunteer) spiked 50 mg/L, measured c 52.5 mg/L, calibration with human serum
[7] = S5b, serum of 27 (healthy volunteer) spiked 200 mg/L, measured c 220 mg/L, calibration with human serum
[8] = S5b, serum of 28 (healthy volunteer) spiked 50 mg/L, measured c 49.1 mg/L, calibration with human serum
[9] = S5b, serum of 28 (healthy volunteer) spiked 200 mg/L, measured c 199 mg/L, calibration with human serum
[10] = S5b, serum of 29 (healthy volunteer) spiked 50 mg/L, measured c 52.0 mg/L, calibration with human serum
[11] = S5b, serum of 29 (healthy volunteer) spiked 200 mg/L, measured c 207 mg/L, calibration with human serum

In the case of `CN[C@H]1C(=O)N[C@@H]2Cc3ccc(cc3)Oc3cc4cc(c3O[C@@H]3O[C@H](C(=O)O)[C@@H](O)[C@H](O)[C@H]3NC(=O)CCCCCCCCC(C)C)Oc3ccc(cc3Cl)[C@@H](O)[C@@H]3NC(=O)[C@H](NC(=O)[C@@H]4NC(=O)[C@@H](NC2=O)c2cc(cc(O)c2Cl)Oc2cc1ccc2O)c1ccc(O)c(c1)-c1c(O[C@H]2O[C@H](CO)[C@@H](O)[C@H](O)[C@@H]2O)cc(O)cc1[C@@H](C(=O)NCCCN(C)C)NC3=O` [dalbavancin, Dalbavancin], the “maximum free fraction at total concentrations below the LOQ of 12.5 mg/L” value ([1]; in accordance with the higher protein binding observed) is reported as 0.4 mg/L, the “fcmax(d1) *” value ([1]; patient 1, 1500 mg) is reported as 5.4 mg/L and the “fcmin(d8) *” value ([1]; patient 1, 1500 mg) is reported as 1.3 mg/L. For the same molecule, the “fAUC(d8) *” value ([1]; patient 1, 1500 mg) was 31.2 mg·h/L, the “fcmax(d1) *” value ([1]; patient 2, 1500 mg) was 6.4 mg/L and the “fcmin(d8) *” value ([1]; patient 2, 1500 mg) was 1.0 mg/L. For the same molecule, the “fAUC(d8) *” value ([1]; patient 2, 1500 mg) was 24.0 mg·h/L, the “fcmax(d1) *” value ([1]; patient 3, 1500 mg) was 6.7 mg/L and the “fcmin(d8) *” value ([1]; patient 3, 1500 mg) was less than 1.0 mg/L. The “fAUC(d8) *” value ([1]; patient 3, 1500 mg) was less than 24.0 mg·h/L, the fc ([2]; S5a, serum of patient 1 (critically ill) spiked 50 mg/L, measured c 53.5 mg/L, Nanosep SPE, HPLC-UV, calibration with sheep serum) was 1.4 mg/L and the fc ([2]; S5a, serum of patient 1 (critically ill) spiked 200 mg/L, measured c 201 mg/L, calibration with sheep serum) was 7.6 mg/L. For the same molecule, the fc ([2]; S5a, serum of patient 2 (critically ill) spiked 50 mg/L, measured c 53.6 mg/L, calibration with sheep serum) was 1.7 mg/L, the PB [2, 3] was 96% and the fc [2, 3] was 9.0 mg/L. For the same molecule, the PB [2, 4] was 96%, the fc [2, 4] was 1.9 mg/L and the fc ([2]; S5a, serum of patient 3 (critically ill) spiked 200 mg/L, measured c 209 mg/L, calibration with sheep serum) was 9.1 mg/L. It also gave a fc ([2]; S5a, serum of patient 4 (critically ill) spiked 50 mg/L, measured c 54.2 mg/L, calibration with sheep serum) of 1.6 mg/L, a fc ([2]; S5a, serum of patient 4 (critically ill) spiked 200 mg/L, measured c 212 mg/L, calibration with sheep serum) of 7.7 mg/L and a fc ([2]; S5a, serum of patient 5 (critically ill) spiked 50 mg/L, measured c 53.0 mg/L, calibration with sheep serum) of 2.1 mg/L. The fc ([2]; S5a, serum of patient 5 (critically ill) spiked 200 mg/L, measured c 203 mg/L, calibration with sheep serum) was 9.5 mg/L, the fc ([2]; S5a, serum of patient 6 (critically ill) spiked 50 mg/L, measured c 50.4 mg/L, calibration with sheep serum) was 1.5 mg/L and the fc ([2]; S5a, serum of patient 6 (critically ill) spiked 200 mg/L, measured c 204 mg/L, calibration with sheep serum) was 9.2 mg/L. The fc ([2]; S5a, serum of patient 7 (critically ill) spiked 50 mg/L, measured c 49.1 mg/L, calibration with sheep serum) was 2.4 mg/L, the fc ([2]; S5a, serum of patient 7 (critically ill) spiked 200 mg/L, measured c 195 mg/L, calibration with sheep serum) was 10.2 mg/L and the fc ([2]; S5a, serum of patient 8 (critically ill) spiked 50 mg/L, measured c 54.3 mg/L, calibration with sheep serum) was 1.8 mg/L. The fc ([2]; S5a, serum of patient 8 (critically ill) spiked 200 mg/L, measured c 201 mg/L, calibration with sheep serum) was 8.7 mg/L, the fc ([2]; S5a, serum of patient 9 (non-critically ill) spiked 50 mg/L, measured c 40.0 mg/L, calibration with sheep serum) was less than 1.0 mg/L and the fc ([2]; S5a, serum of patient 9 (non-critically ill) spiked 200 mg/L, measured c 177 mg/L, calibration with sheep serum) was 3.7 mg/L. For the same molecule, the fc ([2]; S5a, serum of patient 10 (non-critically ill) spiked 50 mg/L, measured c 47.8 mg/L, calibration with sheep serum) was less than 1.0 mg/L, the fc ([2]; S5a, serum of patient 10 (non-critically ill) spiked 200 mg/L, measured c 180 mg/L, calibration with sheep serum) was 4.0 mg/L and the fc ([2]; S5a, serum of patient 11 (non-critically ill) spiked 50 mg/L, measured c 38.6 mg/L, calibration with sheep serum) was less than 1.0 mg/L. For the same molecule, the fc ([2]; S5a, serum of patient 11 (non-critically ill) spiked 200 mg/L, measured c 177 mg/L, calibration with sheep serum) was 3.5 mg/L, the fc ([2]; S5a, serum of patient 12 (non-critically ill) spiked 50 mg/L, measured c 42.6 mg/L, calibration with sheep serum) was less than 1.0 mg/L and the fc ([2]; S5a, serum of patient 12 (non-critically ill) spiked 200 mg/L, measured c 195 mg/L, calibration with sheep serum) was 3.9 mg/L. For the same molecule, the fc ([2]; S5a, serum of patient 13 (non-critically ill) spiked 50 mg/L, measured c 53.0 mg/L, calibration with sheep serum) was 1.1 mg/L, the fc ([2]; S5a, serum of patient 13 (non-critically ill) spiked 200 mg/L, measured c 214 mg/L, calibration with sheep serum) was 6.3 mg/L and the fc ([2]; S5a, serum of patient 14 (non-critically ill) spiked 50 mg/L, measured c 50.0 mg/L, calibration with sheep serum) was 1.1 mg/L. It also gave a fc ([2]; S5a, serum of patient 14 (non-critically ill) spiked 200 mg/L, measured c 208 mg/L, calibration with sheep serum) of 4.6 mg/L, a fc ([2]; S5b, serum of 24 (healthy volunteer) spiked 50 mg/L, measured c 46.1 mg/L, calibration with human serum) of 1.6 mg/L and a fc ([2]; S5b, serum of 24 (healthy volunteer) spiked 200 mg/L, measured c 184 mg/L, calibration with human serum) of 4.6 mg/L. The fc ([2]; S5b, serum of 25 (healthy volunteer) spiked 50 mg/L, measured c 45.8 mg/L, calibration with human serum) was 1.6 mg/L, the fc ([2]; S5b, serum of 25 (healthy volunteer) spiked 200 mg/L, measured c 197 mg/L, calibration with human serum) was 5.8 mg/L and the fc ([2]; S5b, serum of 26 (healthy volunteer) spiked 50 mg/L, measured c 52.6 mg/L, calibration with human serum) was 1.6 mg/L. The PB [2, 5] was 97%, the fc [2, 5] was 5.2 mg/L and the PB [2, 6] was 97%. The fc [2, 6] was 1.7 mg/L, the PB [2, 7] was 97% and the fc [2, 7] was 5.1 mg/L. The PB [2, 8] was 97%, the fc [2, 8] was 1.6 mg/L and the PB [2, 9] was 98%. The fc [2, 9] was 4.8 mg/L, the PB [2, 10] was 97% and the fc [2, 10] was 1.4 mg/L. For the same molecule, the PB [2, 11] was 98%, the fc [2, 11] was 4.6 mg/L and the fc ([2]; S5b, serum of patient 15 (critically ill) spiked 50 mg/L, measured c 56.7 mg/L, Nanosep SPE, HPLC-UV, calibration with human serum) was 1.9 mg/L. It also gave a fc ([2]; S5b, serum of patient 15 (critically ill) spiked 200 mg/L, measured c 239 mg/L, calibration with human serum) of 9.8 mg/L and a fc ([2]; S5b, serum of patient 16 (critically ill) spiked 50 mg/L, measured c 56.7 mg/L, calibration with human serum) of 1.8 mg/L.
